Experimental data reported in PubChem BioAssay AID330 (DTP/NCI, 2004).
Where “and” joins values, the source holds several entries; their conditions need not be identical. Equal entries are not always repeated. Inconclusive results and toxic doses are left out.

Tested on: P388 leukemia ip, CD2F1 mice, survival T/C
Experiment: NCI In Vivo Anticancer Drug Screen. Data for tumor model P388 Leukemia (intraperitoneal) in CD2F1 (CDF1) mice
Details: endpoint: median survival time, higher = longer survival
Outline: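 Mice carrying the transplanted tumor received test compound or vehicle. Survival was recorded in each group, and the value is the treated-group measurement divided by that of the vehicle-treated control group.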

[1] = dose: 100.0 mg/kg/injection, schedule: Q01DX009 (ip), vehicle: saline with Tween-80
[2] = dose: 200.0 mg/kg/injection, schedule: Q01DX009 (ip), vehicle: saline with Tween-80
[3] = dose: 50.0 mg/kg/injection, schedule: Q01DX005 (ip), vehicle: Klucel (hydroxypropylcellulose) (HPC)
[4] = dose: 100.0 mg/kg/injection, schedule: Q01DX005 (ip), vehicle: Klucel (hydroxypropylcellulose) (HPC)
[5] = dose: 200.0 mg/kg/injection, schedule: Q01DX005 (ip), vehicle: Klucel (hydroxypropylcellulose) (HPC)
[6] = dose: 50.0 mg/kg/injection, schedule: Q01DX005 (ip), vehicle: saline with Tween-80
[7] = dose: 100.0 mg/kg/injection, schedule: Q01DX005 (ip), vehicle: saline with Tween-80
[8] = dose: 200.0 mg/kg/injection, schedule: Q01DX005 (ip), vehicle: saline with Tween-80

Compound: CC1=CC(C)(C)NC(=S)N1c1cccc(Cl)c1
- T/C (dose: 3.12 mg/kg/injection, schedule: Q01DX009 (ip), vehicle: saline with Tween-80): 107 % of control and 118 % of control
- T/C (dose: 6.25 mg/kg/injection, schedule: Q01DX009 (ip), vehicle: saline with Tween-80): 111 % of control and 114 % of control
- T/C (dose: 12.5 mg/kg/injection, schedule: Q01DX009 (ip), vehicle: saline with Tween-80): 101 % of control and 118 % of control
- T/C [1]: 93 % of control
- T/C [2]: 90 % of control
- T/C (dose: 400.0 mg/kg/injection, schedule: Q01DX009 (ip), vehicle: saline with Tween-80): 90 % of control

Compound: CCOP(=S)(N/N=C(/c1ccc(C)s1)C(F)(F)F)OCC
- T/C [3]: 104 % of control
- T/C [4]: 110 % of control
- T/C [5]: 114 % of control

Compound: CC1CCC/C=C/C2CC(O)CC2C(O)/C=C\C(=O)O1 (stereo not given)
- T/C (dose: 8.75 mg/kg/injection, schedule: Q01DX005 (ip), vehicle: Klucel (hydroxypropylcellulose) (HPC)): 101 % of control
- T/C (dose: 17.5 mg/kg/injection, schedule: Q01DX005 (ip), vehicle: Klucel (hydroxypropylcellulose) (HPC)): 97 % of control
- T/C (dose: 35.0 mg/kg/injection, schedule: Q01DX005 (ip), vehicle: Klucel (hydroxypropylcellulose) (HPC)): 93 % of control
- T/C (dose: 70.0 mg/kg/injection, schedule: Q01DX005 (ip), vehicle: Klucel (hydroxypropylcellulose) (HPC)): 100 % of control

Compound: O=c1c(=O)c2cc(O)ccc12
- T/C [6]: 109 % of control
- T/C [7]: 105 % of control
- T/C [8]: 100 % of control

Compound: CC(C)(C)c1ccc(N2CSC(=S)N(c3ccc(C(C)(C)C)cc3)C2)cc1
- T/C (dose: 50.0 mg/kg/injection, schedule: Q01DX009 (ip), vehicle: saline with Tween-80): 96 % of control
- T/C [1]: 89 % of control
- T/C [2]: 90 % of control

Compound: Fc1cccc(CSC(=S)Nc2ccc(Cl)c(C(F)(F)F)c2)c1
- T/C (dose: 50.0 mg/kg/injection, schedule: Q01DX009 (ip), vehicle: suspension in saline): 98 % of control
- T/C (dose: 100.0 mg/kg/injection, schedule: Q01DX009 (ip), vehicle: suspension in saline): 93 % of control
- T/C (dose: 200.0 mg/kg/injection, schedule: Q01DX009 (ip), vehicle: suspension in saline): 98 % of control

Compound: CCOc1c(N=Nc2ccc(Cl)cc2)c(-c2ccccc2)nn1C(N)=S
- T/C (dose: 50.0 mg/kg/injection, schedule: Q01DX005 (ip), vehicle: saline + Tween-80 + alcohol): 108 % of control
- T/C (dose: 100.0 mg/kg/injection, schedule: Q01DX005 (ip), vehicle: saline + Tween-80 + alcohol): 94 % of control
- T/C (dose: 200.0 mg/kg/injection, schedule: Q01DX005 (ip), vehicle: saline + Tween-80 + alcohol): 99 % of control

Compound: NC(=O)CCCC(C(N)=O)(c1ccccc1)c1ccccc1
- T/C (dose: 100.0 mg/kg/injection, schedule: Q01DX001 (ip), vehicle: Klucel (hydroxypropylcellulose) (HPC)): 101 % of control
- T/C (dose: 200.0 mg/kg/injection, schedule: Q01DX001 (ip), vehicle: Klucel (hydroxypropylcellulose) (HPC)): 100 % of control
- T/C (dose: 400.0 mg/kg/injection, schedule: Q01DX001 (ip), vehicle: Klucel (hydroxypropylcellulose) (HPC)): 100 % of control

Compound: CCOC(=O)c1ccc(NC(=O)Nc2nncs2)cc1
- T/C (dose: 6.25 mg/kg/injection, schedule: Q01DX009 (ip), vehicle: distilled water + Tween-80): 114 % of control
- T/C (dose: 12.5 mg/kg/injection, schedule: Q01DX009 (ip), vehicle: distilled water + Tween-80): 119 % of control

Compound: O=C(CCSCCC(=O)N/N=C/C(O)C(O)C(O)C(O)CO)N/N=C/C(O)C(O)C(O)C(O)CO (stereo not given)
- T/C [6]: 99 % of control
- T/C (dose: 50.0 mg/kg/injection, schedule: Q01DX005 (ip), vehicle: saline): 97 % of control
- T/C [7]: 98 % of control
- T/C (dose: 100.0 mg/kg/injection, schedule: Q01DX005 (ip), vehicle: saline): 98 % of control
- T/C [8]: 96 % of control
- T/C (dose: 200.0 mg/kg/injection, schedule: Q01DX005 (ip), vehicle: saline): 99 % of control

Compound: CCC(C)C(NC(=O)C(C)Oc1cc(Cl)c(Cl)cc1Cl)C(=O)O (stereo not given)
- T/C [6]: 92 % of control
- T/C [7]: 101 % of control

Compound: ON=C1CCC(=NO)CC1
- T/C (dose: 25.0 mg/kg/injection, schedule: Q04DX003 (ip), vehicle: saline): 101 % of control
- T/C (dose: 50.0 mg/kg/injection, schedule: Q04DX003 (ip), vehicle: saline): 100 % of control
- T/C (dose: 100.0 mg/kg/injection, schedule: Q04DX003 (ip), vehicle: saline): 95 % of control
- T/C (dose: 200.0 mg/kg/injection, schedule: Q04DX003 (ip), vehicle: saline): 107 % of control
- T/C (dose: 400.0 mg/kg/injection, schedule: Q04DX003 (ip), vehicle: saline): 101 % of control

Compound: N#C/C(=C/c1ccccc1)CBr
- T/C (dose: 100.0 mg/kg/injection, schedule: Q01DX001 (ip), vehicle: saline with Tween-80): 95 % of control

Compound: COc1cc2c(c(OC)c1OC)-c1ccc(O)c(=O)cc1C(N)CC2 (stereo not given)
- T/C (dose: 3.12 mg/kg/injection, schedule: Q01DX008 (ip), vehicle: saline): 101 % of control and 97 % of control
- T/C (dose: 6.25 mg/kg/injection, schedule: Q01DX008 (ip), vehicle: saline): 100 % of control and 102 % of control
- T/C (dose: 12.5 mg/kg/injection, schedule: Q01DX008 (ip), vehicle: saline): 102 % of control and 105 % of control
- T/C (dose: 25.0 mg/kg/injection, schedule: Q01DX008 (ip), vehicle: saline): 102 % of control and 105 % of control
- T/C (dose: 50.0 mg/kg/injection, schedule: Q01DX008 (ip), vehicle: saline): 105 % of control and 110 % of control
- T/C (dose: 100.0 mg/kg/injection, schedule: Q01DX008 (ip), vehicle: saline): 109 % of control and 113 % of control

Compound: CC(C)(C)OC(=O)NC(CCCNC(=O)OCc1ccccc1)C(=O)O (stereo not given)
- T/C [3]: 100 % of control
- T/C [4]: 100 % of control
- T/C [5]: 99 % of control

Compound: CC(=O)Nc1nc(CCl)cs1
- T/C (dose: 25.0 mg/kg/injection, schedule: Q01DX009 (ip), vehicle: Klucel (hydroxypropylcellulose) (HPC)): 100 % of control
- T/C (dose: 50.0 mg/kg/injection, schedule: Q01DX009 (ip), vehicle: Klucel (hydroxypropylcellulose) (HPC)): 102 % of control
- T/C (dose: 100.0 mg/kg/injection, schedule: Q01DX009 (ip), vehicle: Klucel (hydroxypropylcellulose) (HPC)): 103 % of control
- T/C (dose: 200.0 mg/kg/injection, schedule: Q01DX009 (ip), vehicle: Klucel (hydroxypropylcellulose) (HPC)): 110 % of control

Compound: CCCCc1c(O)nc2nc(-c3ccccc3)c(-c3ccccc3)nn2c1=O
- T/C (dose: 3.12 mg/kg/injection, schedule: Q01DX005 (ip), vehicle: Klucel (hydroxypropylcellulose) (HPC)): 107 % of control
- T/C (dose: 6.25 mg/kg/injection, schedule: Q01DX005 (ip), vehicle: Klucel (hydroxypropylcellulose) (HPC)): 103 % of control
- T/C (dose: 12.5 mg/kg/injection, schedule: Q01DX005 (ip), vehicle: Klucel (hydroxypropylcellulose) (HPC)): 94 % of control

Compound: CC(C)(C#N)NCCCCCCNC(C)(C)C#N
- T/C [3]: 96 % of control
- T/C [4]: 93 % of control
- T/C [5]: 100 % of control

Compound: N.N.N.N.N.N.[Cl-].[Pt]
- T/C (dose: 12.5 mg/kg/injection, schedule: Q01DX009 (ip), vehicle: saline): 92 % of control
- T/C (dose: 25.0 mg/kg/injection, schedule: Q01DX009 (ip), vehicle: saline): 97 % of control

Compound: CC1C(c2ccccc2)=NN(C)c2ccccc21 (stereo not given)
- T/C (dose: 60.0 mg/kg/injection, schedule: Q01DX005 (ip), vehicle: saline with Tween-80): 97 % of control
- T/C (dose: 120.0 mg/kg/injection, schedule: Q01DX005 (ip), vehicle: saline with Tween-80): 102 % of control
- T/C (dose: 240.0 mg/kg/injection, schedule: Q01DX005 (ip), vehicle: saline with Tween-80): 90 % of control

Compound: CC1=NNC2(CCCCC2)C1
- T/C (dose: 12.5 mg/kg/injection, schedule: Q01DX009 (ip), vehicle: water): 113 % of control
- T/C (dose: 25.0 mg/kg/injection, schedule: Q01DX009 (ip), vehicle: water): 103 % of control
- T/C (dose: 50.0 mg/kg/injection, schedule: Q01DX009 (ip), vehicle: water): 94 % of control
- T/C (dose: 100.0 mg/kg/injection, schedule: Q01DX009 (ip), vehicle: water): 111 % of control
- T/C (dose: 200.0 mg/kg/injection, schedule: Q01DX009 (ip), vehicle: water): 106 % of control

Compound: CNC(=O)OCc1c(COC(=O)NC)c2n(c1C)CS(=O)(=O)C2
- T/C (dose: 25.0 mg/kg/injection, schedule: Q01DX005 (ip), vehicle: saline with Tween-80): 122 % of control
- T/C [7]: 204 % of control and 211 % of control
